Test results reported in US20110201620A1, “2-(3-AMINOARYL) AMINO-4-ARYL-THIAZOLES AND THEIR USE AS C-KIT INHIBITORS” (AB SCIENCE, priority 2002, published 2011).
Values joined by “and” are separate entries in the source; they are usually repeats but may differ in a detail not shown here. Equal entries are not always repeated.

Experiments:
[1] = test system: locally advanced or metastatic, c-Kit positive GIST; assay: Phase 2 clinical trial in advanced GIST, efficacy (RECIST, FDG-PET, PFS, OS); assay type: in vivo, human
Text: Methods; Patients: Patients enrolled in this study were aged over 18 years with inoperable, non-pretreated, histologically proven locally advanced or metastatic, c-Kit positive GIST. […] Exclusion criteria included: inadequate organ function defined via blood tests, severe liver or cardiac failure, and severe neurological or psychiatric disorders. Patients receiving a concomitant treatment within 4 weeks before inclusion, and pregnant or lactating women were also excluded. […] Time-to-event analyses were calculated from the date of first masitinib intake to the date of event (documented progression or death). Patients who had not progressed at the date of last tumor assessment were censored at that date for PFS. Patients alive at the time of the analysis were censored at the date of last contact for OS. Methods; Statistical analyses: Simon […] two-stage design was used for this prospective, multicenter, single-group, phase II trial. Fourteen patients were initially enrolled, with recruitment of an additional ten patients being dependent on the occurrence of at least one objective RECIST response. This population was further extended to a total of 30 patients to ensure a sufficient evaluable population for all end-points; the type I(α) error was 5% (two-sided) for all analyses. Quantitative variables were described by the number of filled and missing data, mean, standard deviation, median, minimum and maximum Qualitative variables were described by the number of missing data and, for each modality, frequency and percentage (referring to filled data). Time-to-event data were described using Kaplan-Meier (KM) estimates. The median was provided with its 95% confidence interval (95% CI). PFS rates were given every 6 months with KM estimates. All data analyses and reporting procedures used SAS v9.1 in a Windows XP operating system environment.

Human Kit exon 9 = conditions: read-out: Cell proliferation assay (IC50) Human Kit exon 9; cited from earlier work
Solubility = assay type: physicochemical
Procedure: For detailed procedure refer to patent WO/2008/098949. AB1010 is also manufactured by AB Science, S.A. (France), or by Prestwick Chemical, Inc. (France). The chemical structure was confirmed by nuclear magnetic resonance, mass spectrometry, ultraviolet and infrared spectrometry, and elemental analysis. […] The compound, a white powder, was prepared according to the art to provide tablets. Tablet containing masitinib was used for each experiment.

[2] = test system: imatinib-resistant HMC-1 α155 cells; assay: Apoptosis assay by propidium iodide staining; assay type: cell-based, human; conditions: 1 μM
Procedure: HMC-1 is a human mast cell line derived from a patient with mast cell leukaemia. The cell line used in this study, HMC-1 α155, is a clone derived from the original population expressing endogenous Kit bearing the mutation Val 560 to Gly. […] The medium used in this case was a RPMI medium containing L-glutamine (Cambrex cat# 12-702F) supplemented with 100 U/mL penicillin and 100 μg/mL streptomycin (Cambrex 100X penicilline/streptomycine mixture cat #17-602E), and with 10% v/v foetal calf serum (AbCys Lot S02823S1800) which has been previously heat-inactivated 30 minutes at 56° C. (RPMI 10). The medium containing the drugs was replaced with fresh one every 3-4 days. […] The principle behind the method for apoptosis assay by Propidium Iodide Staining (PI staining) is as follows: during apoptosis, DNA breakup causes small fragments of DNA to be free in the nucleus. Following appropriate elution with citrate buffer, these fragments are lost from the nucleus. As these cells now have a lower DNA content, subsequent staining with a DNA binding dye will reveal these cells in the sub-G1 region.
The % apoptosis represents the percentage of cells in apoptose with respect to overall cells.

[3] = Kaplan-Meier estimate, listed as masitinib

**Q.** For `Cc1ccc(NC(=O)c2ccc(CN3CCN(C)CC3)cc2)cc1Nc1nc(-c2cccnc2)cs1` [Compound 066, 4-(4-methyl-piperazin-1-ylmethyl)-N-[4-methyl-3-(4-pyridin-3-yl-thiazol-2-ylamino)-phenyl]-benzamide], which “patients who never benefited from treatment (early resistance)” value ([1]; 1/30 patient) is on record?
**A.** 3.3%

**Q.** What about the “OS rates (%) [95% CI] 12 months” value [1, 3] of the same molecule?
**A.** 96.7%

**Q.** And the “OS rates (%) [95% CI] 24 months” value [1, 3]?
**A.** 89.9%

**Q.** And the “OS rates (%) [95% CI] 36 months” value [1, 3]?
**A.** 89.9%

**Q.** What about the “PFS rate (%) [95% CI] 6 months” value [1, 3] of the same molecule?
**A.** 88.9%

**Q.** And the “PFS rate (%) [95% CI] 12 months” value [1, 3]?
**A.** 76.8%

**Q.** And the “PFS rate (%) [95% CI] 24 months” value [1, 3]?
**A.** 59.7% and 60%

**Q.** What about the “PFS rate (%) [95% CI] 36 months” value [1, 3] of the same molecule?
**A.** 55.4% and 55%

**Q.** What about the “PFS Median” value ([1]; Kaplan-Meier, ITT N = 30) of the same molecule?
**A.** 41.3 months

**Q.** What about the “Metabolic response CMR, At 1 month” value ([1]; N = 13, FDG-PET, complete metabolic response) of the same molecule?
**A.** 0 (0.0%) n (%)

**Q.** What about the “Metabolic response CMR + PMR, At 1 month” value ([1]; N = 13, FDG-PET, metabolic response rate) of the same molecule?
**A.** 9 (69.2%) n (%)

**Q.** What about the “Metabolic response PMR, At 1 month” value ([1]; N = 13, FDG-PET, partial metabolic response, listed as masitinib) of the same molecule?
**A.** 9 (69.2%) n (%)

**Q.** What about the “Metabolic response SMD, At 1 month” value ([1]; N = 13, FDG-PET, stable metabolic disease, listed as masitinib) of the same molecule?
**A.** 4 (30.8%) n (%)

**Q.** What about the “Metabolic response CMR, At 2 months” value ([1]; N = 14, FDG-PET, complete metabolic response, listed as masitinib) of the same molecule?
**A.** 3 (21.4%) n (%)

**Q.** What about the “Metabolic response CMR + PMR, At 2 months” value ([1]; N = 14, FDG-PET, metabolic response rate, listed as masitinib) of the same molecule?
**A.** 12 (85.7%) n (%)

**Q.** And the “Metabolic response PMR, At 2 months” value ([1]; N = 14, FDG-PET, partial metabolic response, listed as masitinib)?
**A.** 9 (64.2%) n (%)

**Q.** What about the “Metabolic response SMD, At 2 months” value ([1]; N = 14, FDG-PET, stable metabolic disease, listed as masitinib) of the same molecule?
**A.** 2 (14.3%) n (%)

**Q.** And the “Response (RECIST) CR, 2 months” value ([1]; N = 30, complete response)?
**A.** 0 (0.0%) n (%)

**Q.** What about the “Response (RECIST) CR, Best Response” value ([1]; N = 30, complete response, listed as masitinib) of the same molecule?
**A.** 1 (3.3%) n (%)

**Q.** What about the “Response (RECIST) CR + PR + SD, 2 months” value ([1]; N = 30, disease control rate) of the same molecule?
**A.** 29 (96.7%) n (%)

**Q.** And the “Response (RECIST) CR + PR + SD, Best Response” value ([1]; N = 30, disease control rate, listed as masitinib)?
**A.** 29 (96.7%) n (%)

**Q.** What about the “Response (RECIST) CR + PR, 2 months” value ([1]; N = 30, overall response rate) of the same molecule?
**A.** 6 (20.0%) n (%)

**Q.** And the “Response (RECIST) CR + PR, Best Response” value ([1]; N = 30, overall response rate, listed as masitinib)?
**A.** 16 (53.3%) n (%)

**Q.** What about the “Response (RECIST) PR, Best Response” value ([1]; N = 30, partial response, listed as masitinib) of the same molecule?
**A.** 15 (50.0%) n (%)

**Q.** What about the “Response (RECIST) PD, Best Response” value ([1]; N = 30, progressive disease, listed as masitinib) of the same molecule?
**A.** 1 (3.3%) n (%)

**Q.** What about the “Response (RECIST) SD, Best Response” value ([1]; N = 30, stable disease, listed as masitinib) of the same molecule?
**A.** 13 (43.3%) n (%)

**Q.** What about the “tumour response according to changes in tumour size (RECIST), evaluable patients” value ([1]; after 2 months of masitinib) of the same molecule?
**A.** 20%

**Q.** What about the “tumour response according to metabolic response using FDG-PET” value ([1]; after 2 months of masitinib) of the same molecule?
**A.** 86%

**Q.** And the “tumour response in patients assessed with DCE-US” value ([1]; after 2 months of masitinib)?
**A.** 75%

**Q.** And the “patients with confirmed PR after 2 months, Simon first stage” value ([1]; first 14 patients)?
**A.** 4/14

**Q.** And the “Median time to first objective response” value ([1]; range: 0.8-23.8 months)?
**A.** 5.6 months

**Q.** What about the IC50 (Human Kit exon 9) of the same molecule?
**A.** 100 nM

**Q.** And the “solubility in 0.1 M HCl” value (Solubility; 0.1 M HCl)?
**A.** freely soluble

**Q.** What about the “solubility in 0.1 M NaOH” value (Solubility; 0.1 M NaOH) of the same molecule?
**A.** practically insoluble

**Q.** What about the solubility in dimethylsulfoxide (Solubility; dimethylsulfoxide) of the same molecule?
**A.** freely soluble

**Q.** What about the solubility in ethanol (Solubility; ethanol) of the same molecule?
**A.** slightly soluble

**Q.** What about the solubility in n-hexane (Solubility; n-hexane) of the same molecule?
**A.** practically insoluble

**Q.** And the “solubility in propylene glycol” value (Solubility; propylene glycol)?
**A.** slightly soluble

**Q.** What about the solubility in water (Solubility; water) of the same molecule?
**A.** soluble

**Q.** And the “% apoptosis (cells in apoptosis)” value [2]?
**A.** More than 45%
